These results are taken from the METLIN SMRT retention time set (Domingo-Almenara et al. 2019).

The data set is described as follows: gradient 5% acetonitrile 3 min, to 50% in 2 min, to 85% in 15 min, held 3 min, 100 µL/min. The settings on record: column: Zorbax Extend-C18 2.1 x 50 mm; eluents: water / acetonitrile, 0.1% formic acid. Put shortly:
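The mobile phases were water and acetonitrile, each with 0.1% formic acid, pumped at 100 μL/min through a Zorbax Extend-C18 column (2.1 × 50 mm, 1.8 μm). Pure standards were injected as mixtures of ~100 molecules and detected by a quadrupole time-of-flight mass spectrometer in positive and negative ionization mode. Retention time came from computationally picked adduct peaks, each inspected by hand.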
For the molecule `Cc1nc(C)c(-c2nnc(NC(=O)c3ccno3)o2)s1`, the RP-LC retention time is 603 s.

As for `Cc1oc(-c2[nH]ncc2C(=O)N2CCCC2)cc1S(=O)(=O)NCc1cccc(Cl)c1`, the RP-LC retention time was found to be 796 s.

`COc1cccc(NC(=O)c2[nH]c3cc(C)sc3c2CN2CCOCC2)c1`: the RP-LC retention time is 685 s.

Take `CCOC(=O)c1c(C)c(CCC(=O)NCCN2CCCCCC2)c(C)n1C`: the RP-LC retention time worked out at 656 s.

Consider `Cc1ccc(S(=O)(=O)NC(C)c2nc(-c3ccc(NS(C)(=O)=O)cc3)no2)cc1` (stereo not given), for which the RP-LC retention time is 817 s.

In the case of `Cn1c(CCNC(=O)c2ccc(C(C)(C)C)cc2)nc2cccnc21`, the RP-LC retention time came to 705 s.

As to `CCOc1ccc(NC(=O)C2CCN(S(=O)(=O)c3ccc4c(c3)CCCC(=O)N4)CC2)cc1`, the RP-LC retention time is 816 s.

In the case of `Cc1cccc(Sc2nccnc2N2CCCC(C(=O)N3CCN(c4ccccc4F)CC3)C2)c1` (stereo not given), the RP-LC retention time was 1280 s.

Turning to `Cc1cc(=O)n(CC(=O)Nc2cccc(F)c2)c(N)n1`, the RP-LC retention time worked out at 603 s.

`CCOC(=O)C1CCN(c2ncnc3c2cnn3-c2cccc(C)c2)CC1` displayed an RP-LC retention time of 1080 s.

In turn, `COC(=O)c1cccc(C(=O)Nc2ccc(Cl)cc2C)n1` showed an RP-LC retention time of 971 s.

In turn, `CN(C)S(=O)(=O)c1ccc2c(c1)N(CC(=O)NCCc1ccco1)C(=O)C1CCCCN21` (stereo not given) had an RP-LC retention time of 842 s.

`c1ccc(CNc2nnc(-c3nc(C4CC4)no3)c3ccccc23)cc1` displayed an RP-LC retention time of 878 s.

In the case of `CC1(C(=O)NCc2ccc3c(c2)OCO3)CCN(C(=O)c2ccccc2C(F)(F)F)CC1`, the RP-LC retention time came out at 822 s.

With `Cc1ccc(Nc2c(-c3ccccc3)nc3cccc(C)n23)cc1`, the RP-LC retention time amounted to 757 s.

`O=C1Cc2cc(NC(=O)NC(c3ccccc3)c3ccccc3)ccc2N1` showed an RP-LC retention time of 706 s.

The molecule `CCc1onc(C)c1C1CCCN1C(=O)Nc1cccc(OC)c1` (stereo not given) returned an RP-LC retention time of 791 s.

With `C=C(C)Cn1c(C(C)(C)C)cn2c3c(=O)n(C)c(=O)n(C)c3nc12`, the RP-LC retention time was found to be 739 s.

`CC1CCCCC12NCCN=C2NCc1ccc(F)cc1` (stereo not given) had an RP-LC retention time of 603 s.

The molecule `CCN1CCCn2cc(S(=O)(=O)Nc3ccc(C)cc3)cc2C1=O` came in with an RP-LC retention time of 1130 s.

Turning to `COc1ccc(CCc2nc3nccc(-c4ccncc4)n3n2)cc1OC`, the RP-LC retention time is 645 s.

For `Cc1cc2n(n1)CCC(=O)N2CCCC(=O)NCCCN1CCc2ccccc2C1`, the RP-LC retention time was 580 s.

`CSc1cccc(NC(=O)Cn2cccc2-c2nc(-c3ccc4c(c3)OCO4)no2)c1` returned an RP-LC retention time of 1110 s.

The molecule `COCCN1C(=O)CCc2cc(NS(=O)(=O)c3ccc(OC)c(Cl)c3)ccc21` displayed an RP-LC retention time of 794 s.

`COc1ccc(CNC(=O)N2CCC(c3cc(N)on3)CC2)cc1` returned an RP-LC retention time of 642 s.

In the case of `O=C(CCc1c(-c2ccc(Br)cc2)nc2ccccn12)NC1CCCC1`, the RP-LC retention time was determined as 667 s.

For the molecule `CSc1cccc(NC(=O)N2CCc3c(c(C(=O)N4CCCC4)nn3C)C2)c1`, the RP-LC retention time came to 971 s.

On to `O=C(NCCn1ncccc1=O)C1CCN(c2ccc(-c3ccc(F)cc3)nn2)CC1`, for which the RP-LC retention time stood at 560 s.

`CCc1ccc(NC(=O)C2CCN(S(=O)(=O)c3ccc4c(c3)sc(=O)n4CC)CC2)cc1` came in with an RP-LC retention time of 953 s.

Consider `COc1ccc(Br)cc1CNC(=O)Cn1cc(-c2nnc(C)o2)c2ccccc21`, for which the RP-LC retention time was 847 s.

In turn, `Nc1nc(CN2CCN(c3ccccn3)CC2)nc(Nc2cccc(Cl)c2)n1` showed an RP-LC retention time of 788 s.

On to `Cc1ccc(NC(=O)C2CCN(S(=O)(=O)c3ccc4c(c3)NC(=O)CO4)CC2)c(C)c1`, for which the RP-LC retention time stood at 732 s.

`CC(C)NC(=O)c1ccc2cnn(C)c2c1` came in with an RP-LC retention time of 667 s.

As to `CCC(=O)Nc1nc2cc(NC(=O)C3CCN(S(=O)(=O)N4CCOCC4)CC3)ccc2s1`, the RP-LC retention time amounted to 719 s.

As for `Cc1ccc(S(=O)(=O)N2C[C@H](F)C[C@@H]2C(=O)N2CCOCC2)cc1Cl`, the RP-LC retention time worked out at 750 s.

The molecule `O=C(c1csc(N2CCN(c3ccc(Cl)cc3)CC2)n1)N1CCCCC1` had an RP-LC retention time of 1130 s.

The molecule `COCCC1CCN(C(=O)CC2CCN(C(C)=O)CC2)CC1` had an RP-LC retention time of 626 s.

Regarding `CN1CC(=O)N(CC(=O)Nc2ccc(-c3nc4ccccc4[nH]3)cc2)c2ccccc2C1=O`, the RP-LC retention time was 607 s.

`Cc1c(C(=O)N2CCCC(C)C2)cnn1-c1ccc(-c2nc(C(C)(C)C)no2)cn1` (stereo not given) gave an RP-LC retention time of 1230 s.

The molecule `COc1ccc(NC(=O)CN2CCc3[nH]c4c(F)c(Cl)ccc4c(=O)c3C2)c(OC)c1` yielded an RP-LC retention time of 637 s.

Molecule `CCn1c(N2CCC(C(=O)NCCCN3CCOCC3)CC2)cc(=O)n(C)c1=O` gave an RP-LC retention time of 574 s.

In the case of `c1ccc2sc(C3(NCC4CC4)CCCCC3)cc2c1`, the RP-LC retention time worked out at 799 s.

With `Cc1ccc(S(=O)(=O)Nc2ccc(Cn3cncn3)cc2)cc1F`, the RP-LC retention time came out at 732 s.

The molecule `Cc1ccccc1CN1C[C@@H]2C(=O)N(CCc3ccccc3)C(=O)[C@@H]2C1` displayed an RP-LC retention time of 829 s.

With `Cc1ccc2ncn3c(=O)n(CC(=O)Nc4ccc5c(c4)OCO5)nc3c2c1`, the RP-LC retention time amounted to 673 s.

Regarding `CC(=O)N(C1CCOCC1)C1CCN(C(=O)Nc2cc(F)c(F)c(F)c2)CC1`, the RP-LC retention time worked out at 747 s.

Regarding `CC(C)N1C(=O)c2cccnc2Sc2cc(NC(=O)c3c(F)cccc3Cl)ccc21`, the RP-LC retention time was 973 s.

In turn, `Cc1cccc(OCc2nc(C)c(C(=O)Nc3nc(-c4ccc(Cl)cc4)cs3)s2)c1` displayed an RP-LC retention time of 1360 s.

`O=C1NC(=O)c2cc(Nc3ccccc3)c(Nc3ccccc3)cc21` had an RP-LC retention time of 1040 s.

In the case of `CC(C)CCNC(=O)CC1Sc2ncccc2N(CC(C)C)C1=O` (stereo not given), the RP-LC retention time was 868 s.

Take `O=C(NCc1ccco1)c1cc2c(s1)CCN(C(=O)c1ccccc1)C2`: the RP-LC retention time was found to be 758 s.

Take `CN1CCC(NC(=O)C2CCc3sc(C(=O)N4CCCCC4)cc3C2)CC1` (stereo not given): the RP-LC retention time was determined as 587 s.

`C[C@H](NC(=O)[C@@H]1CCCN1C(=O)[C@@H]1CCCN1C(=O)[C@@H](O)[C@H](N)Cc1ccccc1)C(N)=O` had an RP-LC retention time of 552 s.

`CCOc1ccccc1NC(=O)c1c(O)c2cccnc2n(-c2ccc(F)cc2)c1=O`: the RP-LC retention time turned out to be 1280 s.

The molecule `O=C(Cc1cccc(Cl)c1)N1CC(n2cnnc2C2CC2)C1` displayed an RP-LC retention time of 655 s.

In turn, `O=C(Nc1nc(-c2ccccc2)cs1)Oc1ccccc1` gave an RP-LC retention time of 1030 s.

`O=C(Nc1ccc(Cl)c(Cl)c1)Nc1nc(-c2ccccc2)cs1` showed an RP-LC retention time of 1220 s.

With `Cc1ccc2oc(=O)n(Cc3noc(C(=O)NCCC4=CCCCC4)n3)c2c1`, the RP-LC retention time is 1090 s.

For `CCc1ccc(OCc2nc(CCN(C)C(=O)Nc3ccc(OC)c(OC)c3)no2)cc1`, the RP-LC retention time came to 856 s.

`CCCN(C)CC1(O)CCC2(CCN(C(=O)c3ccc(Cl)s3)CC2)CC1` gave an RP-LC retention time of 647 s.

Regarding `Cc1ccc2cc(CCC(=O)NCc3ccncc3)c(=O)[nH]c2c1`, the RP-LC retention time amounted to 570 s.

Take `O=C(O)CCC1CCCN(S(=O)(=O)c2ccc(F)cc2)C1` (stereo not given): the RP-LC retention time turned out to be 782 s.

In the case of `CCCn1cc(CCNS(=O)(=O)c2ccc(Cl)cc2)c2cccnc21`, the RP-LC retention time amounted to 891 s.

For `CN(C)C[C@@H]1CN(Cc2cccnc2)C[C@H]1NC(=O)C1(c2ccccc2)CC1`, the RP-LC retention time came to 557 s.

Regarding `Cc1ccc(Nc2c(-c3ccc(N(C)C)cc3)nc3ccc(Cl)cn23)cc1`, the RP-LC retention time stood at 818 s.

Regarding `Cc1ccc(Nc2c(-c3ccc(O)cc3)nc3ccc(Br)cn23)cc1`, the RP-LC retention time stood at 726 s.

As for `Cc1cc(C)n2nc(SCC(=O)Nc3ccccc3)nc2n1`, the RP-LC retention time worked out at 700 s.

`CC(=O)N1CCc2sc(S(=O)(=O)N3CCN(c4ccc(C)cc4)CC3)cc2C1`: the RP-LC retention time was 926 s.

The molecule `O=C(c1cn(-c2cc(N3CCSCC3)ncn2)cn1)N1CCSCC1` returned an RP-LC retention time of 774 s.

Take `CN(Cc1nc2ccccc2n1CCc1ccccc1)C(=O)c1ccco1`: the RP-LC retention time turned out to be 706 s.

`Cc1ccc2[nH]c(C(=O)N3CCOCC3)cc2c1` had an RP-LC retention time of 582 s.

`O=c1ccc(S(=O)(=O)N2CCCC2)cn1Cc1cccc(F)c1`: the RP-LC retention time was 826 s.

Take `Cc1ccc(-c2cc3c4nnc(SCC(=O)Nc5cccc(Cl)c5)n4ccn3n2)cc1C`: the RP-LC retention time turned out to be 1060 s.

The molecule `COc1ccccc1-c1noc(Cn2ccn3nc(-c4cccc5ccccc45)cc3c2=O)n1` gave an RP-LC retention time of 1070 s.

`Cc1cc(Cl)ccc1NC(=O)N1C[C@@H](F)C[C@H]1C(=O)N1CCc2ccccc2C1`: the RP-LC retention time turned out to be 908 s.

With `CN(C)C(CNC(=O)c1cc(=O)c2ccccc2o1)c1cn(C)c2ccccc12` (stereo not given), the RP-LC retention time was determined as 554 s.

For the molecule `O=C(Nc1ccccc1)c1cccc(N2CC(C(=O)NC3CCCCCC3)CC2=O)c1` (stereo not given), the RP-LC retention time is 862 s.

`CCN(CC)CCCC(C)Nc1ccnc(/C=C/c2ccc(Cl)cc2)c1` (stereo not given) registered an RP-LC retention time of 602 s.

`O=C(Nc1ccc(Cl)cc1)N1CCC(n2c(C(F)(F)F)nc3cccnc32)CC1`: the RP-LC retention time was found to be 942 s.

`CCOC(=O)c1cc(S(=O)(=O)N2CCCC2C(=O)Nc2cccc(Br)c2)cn1C` (stereo not given): the RP-LC retention time amounted to 1010 s.
